Results as given in ChEMBL document CHEMBL5244229, “Thiazole-containing compounds as therapeutic targets for cancer therapy” (Eur J Med Chem, 2020).
In brackets after ≈: the same amount, converted by molar mass.

Legend:
[1] = tested on: Panel NCI-60 (60 carcinoma cell lines); assay: Antiproliferative activity against human Panel NCI-60 (60 carcinoma cell lines) assessed as cell growth inhibition; assay type: functional
HepG2 [2] = assay: Cytotoxicity against human HepG2 cells assessed as reduction in cell viability measured after 48 hrs by MTS assay; assay type: functional, cell-based; settings: HepG2, 48 h
SMMC-7721 = assay: Cytotoxicity against human SMMC-7721 cells; assay type: functional, cell-based
HCT-116 = assay: Anticancer activity against human HCT-116 cells; assay type: functional, cell-based
HepG2 [3] = assay: Cytotoxicity against human HepG2 cells; assay type: functional, cell-based
PC-3 = assay: Anticancer activity against human PC-3 cells; assay type: functional, cell-based
HepG2 [4] = assay: Anticancer activity against human HepG2 cells; assay type: functional, cell-based
K562 [5] = assay: Anticancer activity against human K562 cells; assay type: functional, cell-based
NCI-H460 [6] = assay: Antitumor activity against human NCI-H460 cells; assay type: functional, cell-based
MCF7 [7] = assay: Cytotoxicity against human MCF7 cells assessed as reduction in cell viability incubated for 48 hrs by MTT assay; assay type: functional
NCI-H460 [8] = assay: Cytotoxicity against human NCI-H460 cells assessed as reduction in cell viability incubated for 48 hrs by MTT assay; assay type: functional
MCF7 [9] = assay: Anticancer activity against human MCF7 cells; assay type: functional, cell-based
A549 [10] = assay: Anticancer activity against human A549 cells; assay type: functional, cell-based
[11] = tested on: Panel NCI-60 (60 carcinoma cell lines); assay: Antitumor activity against human Panel NCI-60 (60 carcinoma cell lines) cells; assay type: functional
MDA-MB-231 = assay: Antiproliferative activity against human MDA-MB-231 cells assessed as reduction in cell viability incubated for 2 days by MTT assay; assay type: functional, cell-based; settings: MDA-MB-231, 48 h
Jurkat = assay: Antiproliferative activity against human Jurkat cells assessed as reduction in cell viability incubated for 2 days by MTT assay; assay type: functional, cell-based; settings: 48 h
HepG2 [12] = assay: Antitumor activity against human HepG2 cells; assay type: functional, cell-based
HL-60 = assay: Cytotoxicity against human HL-60 cells; assay type: functional, cell-based
SF-295 = assay: Cytotoxicity against human SF-295 cells; assay type: functional, cell-based
MDA-MB-435 = assay: Cytotoxicity against human MDA-MB-435 cells; assay type: functional, cell-based
MCF7 [13] = assay: Cytotoxicity against human MCF7 cells assessed as reduction in cell viability by MTS assay; assay type: functional
NCI-H460 [14] = assay: Cytotoxicity against human NCI-H460 cells assessed as reduction in cell viability by MTS assay; assay type: functional
SF-268 [15] = assay: Cytotoxicity against human SF-268 cells assessed as reduction in cell viability by MTS assay; assay type: functional
MCF7 [16] = assay: Cytotoxicity against human MCF7 cells; assay type: functional, cell-based
A549 [17] = assay: Anticancer activity against human A549 cells at 5 microg/ml relative to control; assay type: functional; settings: dose 5 µg/ml
HepG2 [18] = assay: Cytotoxicity against human HepG2 cells assessed as reduction in cell viability incubated for 24 hrs by WST-1 assay; assay type: functional, cell-based; settings: HepG2, 24 h
SF-268 [19] = assay: Antitumor activity against human SF-268 cells; assay type: functional
MCF7 [20] = assay: Antitumor activity against human MCF7 cells; assay type: functional, cell-based
K562 [21] = assay: Cytotoxicity against human K562 cells assessed as reduction in cell viability measured after 48 hrs by MTS assay; assay type: functional, cell-based; settings: K562, 48 h
HeLa [22] = assay: Cytotoxicity against human HeLa cells assessed as reduction in cell viability measured after 48 hrs by MTS assay; assay type: functional, cell-based
HeLa [23] = assay: Antiproliferative activity against human HeLa cells assessed as reduction in cell growth after 72 hrs; assay type: functional, cell-based
[24] = biological target: Vascular endothelial growth factor receptor 2 (Homo sapiens) (UniProt P35968); assay: Inhibition of VEGFR2 (unknown origin) at 20 uM using 5-FAM-KKKKEEIYFFF-CONH2 as substrate incubated for 1 hr in presence of ATP by kinase glo-assay relative to control
Sequence of Vascular endothelial growth factor receptor 2 (Homo sapiens) (P35968 whole entry): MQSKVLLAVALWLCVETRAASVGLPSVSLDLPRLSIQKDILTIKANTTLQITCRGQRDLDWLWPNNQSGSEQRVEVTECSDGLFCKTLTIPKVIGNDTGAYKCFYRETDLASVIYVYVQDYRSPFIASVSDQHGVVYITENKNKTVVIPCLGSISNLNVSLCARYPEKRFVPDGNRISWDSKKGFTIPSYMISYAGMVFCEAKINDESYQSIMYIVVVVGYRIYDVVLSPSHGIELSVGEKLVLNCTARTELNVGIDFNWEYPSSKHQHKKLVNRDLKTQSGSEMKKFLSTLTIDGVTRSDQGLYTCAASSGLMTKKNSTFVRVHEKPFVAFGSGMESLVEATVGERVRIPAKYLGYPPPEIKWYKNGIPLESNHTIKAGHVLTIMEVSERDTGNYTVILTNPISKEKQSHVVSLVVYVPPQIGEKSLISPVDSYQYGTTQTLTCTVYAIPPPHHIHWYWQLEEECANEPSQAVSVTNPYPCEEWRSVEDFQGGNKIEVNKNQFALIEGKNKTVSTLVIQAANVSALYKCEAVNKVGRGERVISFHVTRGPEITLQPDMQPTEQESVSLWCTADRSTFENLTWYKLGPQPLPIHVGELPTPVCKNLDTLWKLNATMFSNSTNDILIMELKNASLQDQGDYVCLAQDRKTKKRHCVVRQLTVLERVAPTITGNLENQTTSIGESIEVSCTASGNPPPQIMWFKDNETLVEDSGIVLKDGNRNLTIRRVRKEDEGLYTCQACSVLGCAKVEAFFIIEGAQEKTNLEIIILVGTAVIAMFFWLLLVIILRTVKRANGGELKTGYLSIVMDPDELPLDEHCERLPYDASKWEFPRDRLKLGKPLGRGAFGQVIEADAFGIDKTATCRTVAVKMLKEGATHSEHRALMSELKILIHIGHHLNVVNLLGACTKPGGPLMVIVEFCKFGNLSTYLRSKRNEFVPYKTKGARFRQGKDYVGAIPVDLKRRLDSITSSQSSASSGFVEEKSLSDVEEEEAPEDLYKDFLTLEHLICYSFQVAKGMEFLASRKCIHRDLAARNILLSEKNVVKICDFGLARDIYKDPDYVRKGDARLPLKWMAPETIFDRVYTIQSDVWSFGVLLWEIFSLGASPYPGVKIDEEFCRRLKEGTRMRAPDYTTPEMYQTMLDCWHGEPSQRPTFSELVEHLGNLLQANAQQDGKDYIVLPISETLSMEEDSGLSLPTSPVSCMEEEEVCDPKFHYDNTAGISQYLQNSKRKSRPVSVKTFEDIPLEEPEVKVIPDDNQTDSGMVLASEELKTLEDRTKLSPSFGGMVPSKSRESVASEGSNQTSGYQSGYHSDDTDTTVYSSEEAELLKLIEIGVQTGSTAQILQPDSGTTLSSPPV

Question: How did the GI50 [1] turn out when `Cn1cc(-c2nc(-c3c[nH]c4ccccc34)cs2)c2cccnc21` was run?
Answer: Its GI50 is 40 nM.

Question: Which IC50 (HepG2 [2]) does the source give for `COc1cccc2c1C(=O)c1c(O)c3c(c(O)c1C2=O)C[C@@](O)(C(=O)CO)C[C@@H]3O[C@H]1C[C@H](N)[C@H](O)[C@H](C)O1` [DOXORUBICIN] here?
Answer: Its IC50 is 720 nM.

Question: And the IC50 (SMMC-7721)?
Answer: The IC50 was 230 nM.

Question: And the IC50 (HCT-116)?
Answer: Its IC50 is 180 nM.

Question: And the CC50 (HepG2 [3])?
Answer: Its CC50 is 200 nM.

Question: And the IC50 (PC-3)?
Answer: Its IC50 is 912 nM.

Question: What about the IC50 (HepG2 [4]) of the same molecule?
Answer: The IC50 was 11600 nM.

Question: And the IC50 (K562 [5])?
Answer: Its IC50 is 2300 nM.

Question: `CCn1c(=O)/c(=C2\Sc3ccccc3N2C)s/c1=C\c1cccc[n+]1CC` was tested. Which IC50 (NCI-H460 [6]) did it give?
Answer: Its IC50 is 1300 nM.

Question: Which results are given for `CC1=CS/C(=C(/C#N)C(=O)N/N=C(\C)C2CC[C@@]3(C)[C@]4(C)CC=C5C[C@@H](O)CC[C@]5(C)[C@@]4(C)CC[C@]23C)N1c1ccccc1` (some centres undefined)?
Answer: GI50 (MCF7 [7]): 20 nM; GI50 (NCI-H460 [8]): 10 nM

Question: `O=C(NNc1nc(-c2ccc3ccccc3c2)cs1)N1N=C(c2ccccc2)CC1c1ccc(Cl)cc1` (centres undefined) was tested. Which IC50 (MCF7 [9]) did it give?
Answer: Its IC50 is 5000 nM.

Question: What about the IC50 (A549 [10]) of the same molecule?
Answer: Its IC50 is 5000 nM.

Question: For `Clc1nccc2c(-c3csc(-c4c[nH]c5ccc(Br)cc45)n3)c[nH]c12`, which GI50 [11] is on record?
Answer: Its GI50 is 930 nM.

Question: `C/C(=N\NC(=O)/C(C#N)=C1\SC=C(O)N1c1ccccc1)C1CC[C@@]2(C)[C@]3(C)CC=C4C[C@@H](O)CC[C@]4(C)[C@@]3(C)CC[C@]12C` (some centres undefined) was tested. Which GI50 (MCF7 [7]) did it give?
Answer: Its GI50 is 40 nM.

Question: And the GI50 (NCI-H460 [8])?
Answer: Its GI50 is 90 nM.

Question: For `CCC[C@H](NS(=O)(=O)c1ccc(C)cc1)[C@]1(c2ccccc2Cl)N=C(SCC)SC1=O`, which IC50 (MDA-MB-231) is on record?
Answer: Its IC50 is 38000 nM.

Question: And the IC50 (Jurkat)?
Answer: The IC50 was 17000 nM.

Question: Which GI50 [1] does the source give for `Cn1cc(-c2csc(-c3cn(C)c4ncccc34)n2)c2ccccc21` here?
Answer: Its GI50 is 30 nM.

Question: Which IC50 (HepG2 [12]) does the source give for `CCOC(=O)c1nn(-c2ccc(Cl)cc2Cl)/c(=N/NC(=O)c2sc(-c3ccccc3)nc2C)s1` here?
Answer: Its IC50 is 820 nM.

Question: With `Cc1ccc2[nH]cc3c(=O)n(-c4nc5ccccc5s4)nc-3c2c1` as the molecule, how does the IC50 (HL-60) read?
Answer: The IC50 was under 5 µg/mL.

Question: What about the IC50 (SF-295) of the same molecule?
Answer: Its IC50 is under 5 µg/mL.

Question: What about the IC50 (MDA-MB-435) of the same molecule?
Answer: Its IC50 is under 5 µg/mL.

Question: How did the GI50 (MCF7 [13]) turn out when `C/C(=N\N=c1/scc(-c2ccc(Cl)cc2)n1-c1ccccc1)C1CC[C@@]2(C)[C@]3(C)CC=C4C[C@@H](O)CC[C@]4(C)[C@@]3(C)CC[C@]12C` (some centres undefined) was run?
Answer: The GI50 was 200 nM.

Question: What about the GI50 (NCI-H460 [14]) of the same molecule?
Answer: Its GI50 is 200 nM.

Question: And the GI50 (SF-268 [15])?
Answer: The GI50 was 800 nM.

Question: Which IC50 (MCF7 [16]) does the source give for `O=c1[nH]cc(F)c(=O)[nH]1` [FLUOROURACIL] here?
Answer: Its IC50 is 5.5 µg/mL (≈ 42.3 µM).

Question: And the Activity (A549 [17])?
Answer: The Activity was 57%.

Question: `COc1ccc(/N=N/c2sc(N/N=C(/C)c3sc(N)nc3C)nc2C)cc1` was tested. Which IC50 (HepG2 [18]) did it give?
Answer: Its IC50 is 500 nM.

Question: `N#CC(C#N)=C1SC(n2nc(O)cc2N)=CN1c1ccccc1` was tested. Which GI50 (SF-268 [19]) did it give?
Answer: Its GI50 is 10 nM.

Question: `C/C(=N/Nc1nc(C)c(/N=N/c2ccccc2)s1)c1sc(N)nc1C` was tested. Which IC50 (HepG2 [18]) did it give?
Answer: The IC50 was 840 nM.

Question: `C/C(=N/Nc1nc(C)c(/N=N/c2ccc(Cl)cc2)s1)c1sc(N)nc1C` was tested. Which IC50 (HepG2 [18]) did it give?
Answer: Its IC50 is 520 nM.

Question: `CCC[C@H](NS(=O)(=O)c1ccc(C)cc1)[C@]1(c2ccccc2Br)N=C(SCC)SC1=O` was tested. Which IC50 (MDA-MB-231) did it give?
Answer: The IC50 was 41000 nM.

Question: And the IC50 (Jurkat)?
Answer: Its IC50 is 19000 nM.

Question: What does the source list for `C/C(=N/Nc1nc(C)c(/N=N/c2ccccc2)s1)c1nnn(-c2ccccc2)c1C`?
Answer: IC50 (MCF7 [20]): 1120 nM; IC50 (HepG2 [12]): 3410 nM

Question: With `CC(=O)C(C(C)=O)=C1SC(n2nc(O)cc2N)=CN1c1ccccc1` as the molecule, how does the GI50 (SF-268 [19]) read?
Answer: Its GI50 is 10 nM.

Question: Which IC50 (MCF7 [20]) does the source give for `O=C1N/C(=N/c2ccc(-c3nc4ccccc4o3)cc2)S/C1=C/c1ccc(Cl)cc1` here?
Answer: The IC50 was 19 nM.

Question: For `O=C1N/C(=N/c2ccc(-c3nc4ccccc4s3)cc2)S/C1=C/c1ccc([N+](=O)[O-])cc1`, which IC50 (MCF7 [20]) is on record?
Answer: The IC50 was 48 nM.

Question: What about the IC50 (HepG2 [12]) of the same molecule?
Answer: The IC50 was 36 nM.

Question: What does the source list for `Cc1cccc(N(c2cccc(Cl)c2)c2c3ccccc3nc3scnc23)c1`?
Answer: IC50 (K562 [21]): 5690 nM; IC50 (HeLa [22]): 5690 nM

Question: Which IC50 (HeLa [23]) does the source give for `COc1ccc(/C=N/Nc2nc(-c3ccccc3)cs2)cc1` here?
Answer: Its IC50 is 11.1 µg/mL (≈ 35.9 µM).

Question: How did the IC50 (HL-60) turn out when `O=c1c2c[nH]c3ccc(Br)cc3c-2nn1-c1nc2ccccc2s1` was run?
Answer: Its IC50 is under 5 µg/mL.

Question: What about the IC50 (SF-295) of the same molecule?
Answer: The IC50 was under 5 µg/mL.

Question: What about the IC50 (MDA-MB-435) of the same molecule?
Answer: The IC50 was under 5 µg/mL.

Question: What does the source list for `Clc1cccc(Nc2c3ccccc3nc3sc(NCCN4CCCCC4)nc23)c1`?
Answer: IC50 (K562 [21]): 5690 nM; IC50 (HeLa [22]): 5690 nM

Question: How did the inhibition [24] turn out when `O=C(Cc1csc2nc(-c3ccccc3)cn12)Nc1ccc(N2CCOCC2)nc1` was run?
Answer: Its inhibition is 3.76%.

Question: `Cc1cc(Cl)cc(C(=O)NC2CCCCC2)c1NC(=O)c1sc(-c2ccccc2Cl)nc1C(F)(F)F` was tested. Which Activity (A549 [17]) did it give?
Answer: Its Activity is 48%.

Question: How did the GI50 [11] turn out when `Cn1c(-c2csc(-c3c[nH]c4ncccc34)n2)cc2cc(Br)cnc21` was run?
Answer: The GI50 was 810 nM.

Question: What does the source list for `C/C(=N\N=c1/scc(-c2ccc(Br)cc2)n1-c1ccccc1)C1CC[C@@]2(C)[C@]3(C)CC=C4C[C@@H](O)CC[C@]4(C)[C@@]3(C)CC[C@]12C` (some centres undefined)?
Answer: GI50 (MCF7 [13]): 600 nM; GI50 (NCI-H460 [14]): 600 nM; GI50 (SF-268 [15]): 400 nM
